Experiments:
Assay type in all cases: cell-based
[1] = tested on: A375, U2OS, A549, HCT116 p53+/+, HCT116 p53−/−, MDA-MB-486 and H1299 cells; assay: Cell cycle distribution (propidium iodide flow cytometry) in a panel of tumor-derived cell lines after VX-680; details: 200 nM VX-680; harvested at 24, 48 and 72 h; p53 wild-type, mutant and deleted lines
Method: (a) p53-positive cells (A375, U2OS, A549 and HCT116 p53+/+) and (b) p53-compromised cells (HCT116 p53−/−, […] and H1299) were treated with 200 nM VX-680 and harvested at the indicated time points. Analysis of cell cycle distribution using propidium iodide staining was performed using flow cytometry. Representative DNA profiles are shown. DNA content is indicated. No DNA profile was shown for cells that are 100% apoptotic.
p53 has been implicated in a postmitotic G1 checkpoint in response to various mitotic inhibitors. We examined whether this checkpoint is induced after aurora kinase inhibition by VX-680 and whether tetraploidy is suppressed by wild-type p53 functions. Using a panel of commonly used tumor-derived cell lines expressing either wild-type p53, mutant p53 or a deletion at the p53 gene locus (Table 1), we tested the correlation of p53 gene status to VX-680-induced endoreduplication. These cell lines were treated with VX-680, and harvested for cell cycle analysis at 24, 48 and 72 h.

A549 cells [2] = assay: Time course of cell cycle distribution of A549 cells incubated with VX-680; details: A549, 200 nM VX-680, after 48 h
Method: After 48 h, more than 35% of cells were arrested in tetraploid G2/M (8N) (FIG. 2a). […] Together, the results confirmed that the 8N cells were arrested predominantly in G2 and VX-680 inhibited mitosis in part through a G2 checkpoint.

A549 cells [3] = assay: Mitotic index of A549 cells exposed to VX-680; details: A549, VX-680 200 nM
Method: (B) is a graph showing the Mitotic index of A549 cells exposed to VX-680. A549 cells were incubated with VX-680 (200 nM) and the mitotic cells were counted and expressed as a percentage of total cells count. To aid visualization of the condensed chromosomes, H2B-GFP was expressed in A549. Each data point represents the mean±SD (n=3).

[4] = tested on: A549 cells transfected with p53-specific siRNA; assay: Cell cycle analysis of A549 cells transfected with p53 siRNA and exposed to VX-680; details: A549 with p53 siRNA knockdown, exposed to VX-680
Method: (B) Extent of endoreduplication is exacerbated in cells with compromised p53 functions. A549 cells transfected with p53 siRNA (Dharmacon pool) were incubated with VX-680 (200 nM) for the indicated time periods after transfection. […] DNA-dependent cell cycle analysis was performed using flow cytometry.
p53 siRNA oligo 1 (p53si) 5′-[…] GCGUCUU-3′ (SEQ ID NO: 9), cyclin A2 siRNA 5′-[…]-3′ (SEQ ID NO: 10) and cyclin B1 siRNA 5′-[…]-3′ were from Dharmacon (Lafayette, Colo., USA) (SEQ ID NO:11). Cells were plated in six-well dishes overnight in antibiotic-free media. Cells were incubated with Optimen (GIBCO) for an hour before transfection using Lipofectamine 2000 (Invitrogen) and siRNA (30 nM) according to the manufacturer's recommendation. Cells were either harvested at 48 h after transfection or incubated with VX-680 for another 48 h before analysis.

ATM = ATM / DNA damage checkpoint dependence of VX-680-induced G2 arrest (western blot, DNA FACS profiles)
Method: For western blotting, cell extracts were prepared using NP-40 lysis buffer (50 mM Tris-HCl (pH 8.0), 150 mM NaCl, 1% NP-40, 5 mM EDTA supplemented with protease and phosphatase inhibitor cocktails (Sigma).

[5] = tested on: MDA-MB 468 and HCT116 p53−/−; assay: Annexin V apoptosis assay, p53-compromised cell lines; details: various concentrations of VX-680; MDA-MB 468 and HCT116 p53−/−
Method: Cells were then harvested and stained for annexin V to detect apoptotic cells.
For analysis of apoptosis, cells were harvested without fixation. Apoptosis was evaluated using the annexin V (fluorescein isothiocyanate (FITC))-propidium iodide binding assay (Roche, Indianapolis, Ind., USA). The extent of apoptosis was quantified as a percentage of annexin V-positive cells over the total cell population. Flow cytometric analysis was performed on a BD LSR II System (BD Biosciences, Stockholm, Sweden). Data were analyzed using FlowJo software and ModFit LT (Verity Software House, Topsham, Me., USA).

Cc1cc(Nc2cc(N3CCN(C)CC3)nc(Sc3ccc(NC(=O)C4CC4)cc3)n2)[nH]n1 [VX-680, cyclopropane carboxylic acid of {4-[4-(4-methyl-piperazin-1-yl)-6-(5-methyl-2H-pyrazol-3-ylamino)-pyrimidin-2-ylsulphanyl]-phenyl}-amide]
endoreduplication [1]: all tumor cell lines undergo endoreduplication | cells arrested in tetraploid G2/M (8N) (A549 cells [2]): more than 35% | time at which the mitotic index peaked (A549 cells [3]; after treatment): 16 h | mitotic index (A549 cells [3]; at 48 h): 2% | cells with 16n DNA content [4]: > 15% | p53 phosphorylation on Ser15 (ATM; VX-680-treated cells): without detectable phosphorylation on Ser15 | activation of ATM (Ser1981 phosphorylation) (ATM; low concentrations of VX-680): did not induce activation of ATM | apoptosis (annexin V) [5]: underwent apoptosis
